In PubChem BioAssay (NCI):
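These data come from cells grown in 96-well plates and exposed to compound for 48 hours at five concentrations. At the GI50, growth is halved. At the TGI there is no net growth.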 Peptide text beside a SMILES is read from it. * marks the point of attachment. X26 = Clc1c(Cl)c(Cl)c(O*)c(Cl)c1Cl; Boc = CC(C)(C)OC(=O)*; OBn = c1ccc(CO*)cc1; Bn = c1ccc(C*)cc1

Experiments:
Assay in all cases: NCI tumour cell line growth inhibition, 48 h
IGROV1 ovarian = system: IGROV1 ovarian
K-562 leukemia = system: K-562 leukemia
MDA-N = system: MDA-N
NCI-H522 lung = system: NCI-H522 lung
RXF 393 renal = system: RXF 393 renal
SF-268 CNS = system: SF-268 CNS
SF-295 CNS = system: SF-295 CNS
T-47D breast = system: T-47D breast
U251 CNS = system: U251 CNS
LOX IMVI melanoma = system: LOX IMVI melanoma

SMILES	TGI (IGROV1 ovarian) [µM]	TGI (K-562 leukemia) [µM]	TGI (MDA-N) [µM]	TGI (NCI-H522 lung) [µM]	TGI (RXF 393 renal) [µM]	TGI (SF-268 CNS) [µM]	TGI (SF-295 CNS) [µM]	TGI (T-47D breast) [µM]	TGI (U251 CNS) [µM]	TGI (LOX IMVI melanoma) [µM]	GI50 (IGROV1 ovarian) [µM]	GI50 (K-562 leukemia) [µM]	GI50 (T-47D breast) [µM]	GI50 (LOX IMVI melanoma) [µM]	GI50 (NCI-H522 lung) [µM]	GI50 (RXF 393 renal) [µM]	GI50 (SF-268 CNS) [µM]	GI50 (SF-295 CNS) [µM]	GI50 (U251 CNS) [µM]
Cc1ccc(S(=O)(=O)c2c(O)c3ccc(O)c(C)c3oc2=O)cc1	> 100	> 100	> 100	> 100	> 100	> 100	> 100	> 100	> 100										
CCOC(=O)Cn1nnc2cc(Nc3c(C)[n+]([O-])c4cc(F)c(OCC)cc4[n+]3[O-])ccc21	> 100	> 100		> 100	> 100	> 100	> 100	> 100	> 100	> 100									
O=P1(C(O)/C=C/c2ccccc2)N(Cc2ccccc2)[C@@H]2CCCC[C@H]2N1Cc1ccccc1 (some centres undefined)	14.4	16.4	18.2	12.1	23.5	14.2	26.8	35.7	16.5	13.7									
COc1cccc(N2C(=O)CS(=O)(=O)C2c2cccc(Oc3ccccc3)c2)c1 (centres undefined)		19.5	6.45	37.6	71.1	> 100	> 100	81.1	49.7	51.1									
C=C1CC(COc2ccc3c(C)c(C)c(=O)oc3c2C)(c2ccccc2)OC1=O (centres undefined)	3.47	3.88	4.4	4.16		7.96	19.2	4.96	20.3	2.85									
CC1(C)N=C(N)N=C(N)N1c1cccc(OCc2cccc(N)c2)c1	> 100	> 100	> 100	> 100	> 100	> 100	> 100	> 100	> 100	> 100									
CC1=C(C(=O)NC2CCCCC2)CC(C(=O)NC2CCCCC2)=C(C)N1	> 100	> 100	> 100	> 100	> 100	> 100	> 100	> 100	> 100	> 100									
Nc1c(S(N)(=O)=O)cc(S(N)(=O)=O)cc1S(N)(=O)=O	> 100	> 100	> 100	> 100	> 100	> 100	> 100	> 100	> 100	> 100									
O=C1N/N=C\c2ccc(cc2)OCc2cccc(n2)COc2ccc(cc2)/C=N\NC1=O	> 25	> 25	> 25	> 25	> 25	> 25	> 25		> 25										
C#CCOCC12C=CC(O1)C1COC(=O)C12 (centres undefined)	> 100	> 100	> 100	> 100	> 100	> 100	> 100	> 100	> 100	> 100									
CC(O)CNC1=CC(=O)C(=O)c2ccccc21 (centres undefined)	33.8	> 100	34.5	41.8	> 100	33.9	27	45.2	30.6	34.8									
COC(=O)C1=C(C)NC(C)=C(C(=O)OC)C1c1cccc(N=O)c1	30.6	> 100	26.2	11.8	26.8	30.8	> 100	40.4	30.7	31.6									
CNC(=S)NNc1ncnc2c1c(-c1ccc(Cl)cc1)cn2-c1ccc(C)cc1	25	> 100	28	20.7	32.3	26.8	20	24.1	24.1	33.5									
CCN1CCN(Cc2ccc(NC(=O)Nc3ccc(-n4ccc5c(NC(=O)c6ccccc6)nccc54)cc3)cc2C(F)(F)F)CC1	4.39	1.52						15.9			1.42	0.0653	3.54						
COc1ccc2c(c1)-c1c(c3cc(OC)ccc3n1CCN(C)C)CC2	25.9	26.5	27.9	34.1	28.2	37.3	34.3	41	24.8										
CC[N+]1(C)CCC(O)(c2ccc(C)cc2)C(C(=O)c2ccc(C)cc2)C1 (centres undefined)	> 100	37.5	> 100	41.7	84.9	> 100	> 100		> 100										
Cc1nnc2n1-c1ccccc1N(Cc1ccccc1)CC2	> 100	> 100	> 100		> 100	> 100	> 100	> 100	> 100	> 100									
CCCO/N=[N+](\[O-])N(CC)CC	> 100	> 100		> 100	> 100	> 100	> 100		> 100	> 100									
CCCCN1C(=O)CC2[C@@H]3CCc4cc(OC)ccc4C3CC[C@]2(C)C1=O (some centres undefined)	> 10	> 10	> 10		> 10	> 10	> 10	> 10	> 10	> 10									
COc1cc2c3cc1Oc1c(OC)c(OC)cc4c1C(Cc1ccc(O)c(c1)Oc1ccc(cc1)CC3N(C)CC2)CN(C)C4 (centres undefined)	48.9	29.6	24.5	26.2	23.4	65.6	32.7	69.6	24.7										
CCOc1ccc(NCC2CC/C(=C\C=C\c3ccccc3)C2=O)cc1 (centres undefined)	17.5	> 100		32.3	29.6	24.2	79.5	45.3	35.5	23.5									
O=C1/C(=C/c2ccc(Cl)cc2)CCCc2ccc(F)cc21	68.3	> 100		54.5	52	46.9	> 100		52.6	31.8	14.6	11.1		14.4	12.2	24.2	19.9	31.4	13.4
O=C1c2cccnc2S(=O)(=O)N1c1ccc([N+](=O)[O-])cc1	> 100		> 100	> 100		> 100	> 100	> 100	> 100	> 100									

SMILES	TGI (IGROV1 ovarian) [µM]	TGI (K-562 leukemia) [µM]	TGI (MDA-N) [µM]	TGI (NCI-H522 lung) [µM]	TGI (RXF 393 renal) [µM]	TGI (SF-268 CNS) [µM]	TGI (SF-295 CNS) [µM]	TGI (T-47D breast) [µM]	TGI (U251 CNS) [µM]	TGI (LOX IMVI melanoma) [µM]	GI50 (IGROV1 ovarian) [µM]	GI50 (K-562 leukemia) [µM]	GI50 (T-47D breast) [µM]	GI50 (LOX IMVI melanoma) [µM]	GI50 (NCI-H522 lung) [µM]	GI50 (RXF 393 renal) [µM]	GI50 (SF-268 CNS) [µM]	GI50 (SF-295 CNS) [µM]	GI50 (U251 CNS) [µM]
C[N+]1(CCN=C=NC2CCCCC2)CCOCC1	> 100	> 100		> 100	> 100	> 100	> 100	> 100	> 100	> 100									
C[C@H](c1ccccc1)N1C(=O)[C@@H](OCc2ccccc2)[C@H]1[C@H](COC(=O)COCc1ccccc1)OCc1ccccc1	> 100	> 100	> 100	> 100		> 100	> 100		> 100	> 100									
Cc1cc(OCc2nnc3sc(NC(=O)c4ccccc4)nn23)ccc1Cl	68	> 100		61	83.3	> 100	> 100	> 100	> 100	78.7									
CCC(=O)Nc1ccc(NS(=O)(=O)c2ccc(Cl)cc2)cc1	> 100	> 100	> 100	> 100	> 100	> 100	> 100	> 100		> 100									
CC(C)CC(NC(=O)C(CCC(=O)OCc1ccccc1)NC(=O)OC(C)(C)C)C(=O)NC(COCc1ccccc1)C(=O)NC(Cc1ccccc1)C(=O)Oc1c(Cl)c(Cl)c(Cl)c(Cl)c1Cl (centres undefined) (Boc-E(OBn)LS(Bn)F-X26; configuration not given here)	56.3		48.6	51.4	63.8	> 100	68.1		43.7	> 100									
c1c(N2CCOCC2)ssc1=[N+]1CCOCC1	> 100	> 100		> 100	> 100	> 100	> 100		> 100	> 100									
Oc1c(OCc2nnc(CCCCCCCCc3nnc(COc4ccc5ccccc5c4O)o3)o2)ccc2ccccc12		> 100	> 100	> 100	> 100	> 100	> 100		> 100										
CC(=O)OC1CC2(O)C(CCC3(C)C(c4ccc(=O)oc4)CCC32O)C2(C)C1=CC(O)C1OC12 (centres undefined)	0.753	0.381		0.0784	0.0324	0.0874	0.261		0.281	1.02									
Cc1ccc2c(c1C)CC1(Cc3c(C)ccc(C)c3C1=O)C2=O (centres undefined)	> 100	> 100	> 100	> 100	> 100	> 100	> 100	> 100	> 100										
N#Cc1nc(C2CCC(=O)O2)oc1N (centres undefined)	> 100	> 100	> 100		> 100	> 100	> 100		> 100	> 100									
CN(C)CCNc1c([N+](=O)[O-])sc2ccc(Cl)cc12	> 100	> 100		87.4	82.8	> 100	> 100	> 100	78.3	> 100									
O=c1c(-c2ccccc2)c(SCCN2CCCCCC2)n(-c2ccccc2)c(=S)n1-c1ccccc1	> 100	93.9		> 100	98.6		> 100			> 100									
O=c1[nH]c(=O)n(C2CC(O)C(CO)O2)cc1OC/C=C/Cc1ccccc1 (centres undefined)	> 100	> 100		> 100	> 100	> 100	> 100	> 100	> 100	> 100									
O=C1CS/C(=N/N=C/c2cn(Cc3ccc(Cl)cc3Cl)c3ccccc23)N1	> 100	> 100		> 100	77.2	> 100	> 100	> 100	37.2	> 100									
CCN(CCCCCCCCCCN1CC(=O)N(CCCCCCCCCCN(CC)Cc2ccccc2OC)CC1=O)Cc1ccccc1OC	3.62	12			1.93	2.96	3.02	6.33	2.58	1.93	1.57	0.388	1.99	0.587		0.646	1.49	1.15	1.15
N#Cc1ccc(-c2nc(C#N)c(N)o2)cc1	> 10	> 10	> 10	> 10	> 10	> 10	> 10	> 10		> 10									
CC(C)=CCC12Cc3ccc(O)cc3C(C(C)CN1)C2C (centres undefined)	> 100	> 100			> 100	> 100	> 100	> 100	> 100	> 100									
CCCCCCc1cc2cc(-c3csc(-c4ccc(OC)cc4)n3)c(=O)oc2cc1O	19.1	> 100			29.2	14.9	28.5	24.1	18.7	30.4									
COc1ccc(OC)c(NC(=O)C(=O)C(C(=O)c2ccccc2F)C2OC(=O)c3ccccc32)c1 (centres undefined)	> 100	> 100		71.5	70.7	> 100	> 100		49.5	> 100									
COc1cc2c3c(cc(Cl)nc3c1OC)C(=O)C(=O)N2	25.1	> 100		14.9	27.5	31.6	32.9	> 100	30.3	25.9									
C=C(C)[C@H]1CC(=O)/C(C)=C\CC/C(C)=C/CC[C@@]2(C)O[C@@H]2C1	> 100	> 100	94.4			61.2	89.8		49.8	32.2									
CCOc1snc(C(Cl)(Cl)Cl)c1Cl	> 100	> 100	> 100		27.6	46.1	74.7		> 100	42.8									
